{"source": "patent US20240299328A1", "about": "“COMPOSITIONS COMPRISING 15-HEPE AND METHODS OF TREATING AND/OR PREVENTING HEMATOLOGIC DISORDERS AND RELATED DISEASES” (Afimmune Limited, priority 2023, published 2024)", "key": {"[1]": {"tested_on": "Sprague Dawley rats", "assay": "26 week rat toxicity study: hematology", "assay_type": "in vivo", "conditions": "male rats, 26 weeks", "experimental": "The test and control items were administered to the appropriate animals by once daily oral gavage 7 days a week for a minimum of 26 weeks. The volume for each animal was based on the most recent body weight measurements. The doses were given using a syringe with attached gavage cannula. The first day of dosing was designated as Day 1. The dosing formulations were removed from the refrigerator and stirred for at least 30 minutes before dosing. The dosing formulations were also stirred continuously during dosing.\nSample Collection: Blood was collected via the tail vein unless immediately prior to necropsy, when blood was collected from the orbital sinus under non-recoverable isoflurane anesthesia. Blood was collected in ascending animal order unless samples were collected prior to necropsy where the order of euthanasia was followed. Additional blood samples were obtained (e.g., due to clotting of non-serum samples) if permissible sampling frequency and blood volume were not exceeded. After collection, samples were transferred to the appropriate laboratory for processing. Samples were collected according to the following table.\nHematology: A 0.5 mL blood sample was collected using the anticoagulant K2EDTA. Blood smears were labelled, stained, and stored. The blood smears were analyzed according to the following parameters.\nAnimals: The study used male and female Sprague Dawley rats purchased from Charles River UK Limited (Margate, Kent, UK). The target age at the initial dosing was 7-8 weeks. The target weight at the initial dosing was 175-300 g (males) and 120-250 g (females). Each animal was identified using a subcutaneously implanted electronic cylindrical, “glass-sealed” TROVAN microchip."}, "[2]": {"tested_on": "UUO mice", "assay": "UUO study: Sirius red staining, kidney fibrosis area", "assay_type": "in vivo", "experimental": "Histopathological analysis: To visualize collagen deposition, kidney sections were stained using picro-Sirius red solution. For quantification of interstitial fibrosis area, bright field images in the corticomedullary region were captured using a digital camera at 200-fold magnification, and the positive areas in 5 fields/section were measured."}, "[3]": {"conditions": "0.5% HPMC vehicle; same preparation and storage conditions; concentrations bracketing those used; cited from earlier work"}, "[4]": {"conditions": "6000/3000 mg/kg/day oral gavage"}}, "note": "Marks after values point to notes of the source that are not given here."}
{"smiles": "CC/C=C\\C[C@H](O)/C=C/C=C\\C/C=C\\C/C=C\\CCCC(=O)OCC", "note": "[DS102, 15(S)-hydroxy-(5Z,8Z,11Z,13E,17Z)-eicosapentaenoic acid ethyl ester]", "values": [{"measurement": "Red Cell Distribution Width (RDW), Mean", "setting": "[1]; 2000 mg/kg/day oral gavage", "value": "13.91** %"}, {"measurement": "Red blood cell count (RBC), Mean", "setting": "[1]; 2000 mg/kg/day oral gavage", "value": "8.67 10^12/L"}, {"measurement": "Reticulocyte count (RETIC), Mean", "setting": "[1]; 2000 mg/kg/day oral gavage", "value": "1.546e+11", "unit": "L⁻¹"}, {"measurement": "Red Cell Distribution Width (RDW), Mean", "setting": "[1]; [4]", "value": "13.60** %"}, {"measurement": "Red blood cell count (RBC), Mean", "setting": "[1]; [4]", "value": "8.81** 10^12/L"}, {"measurement": "Reticulocyte count (RETIC), Mean", "setting": "[1]; [4]", "value": "141.46** 10^9/L"}, {"measurement": "Sirius red-positive area (%)_Median", "setting": "[2]; 50 mg/kg PO QD Day 0-13, Day 14, median", "value": "4.19 ± 3.33", "unit": "%"}, {"measurement": "Sirius red-positive area (%)_Median", "setting": "[2]; 500 mg/kg PO QD Day 0-13, Day 14, median", "value": "3.08 ± 1.16", "unit": "%"}, {"measurement": "stability of the test item in the vehicle", "setting": "[3]", "value": "stable"}]}
